# Data published in paper PMC7714403 (JCI Insight, 2020).
# Read-outs that look alike come from different tables or passages of the source.
# Tests used:
# Test in all cases: KiNativ, MOLM13 live cells
# Format in all cases: cell-based
# JAK2 domain2 = biological target: T1, JAK2 domain2 (Homo sapiens, UniProt O60674); details: 100 nM, 2 hours; Activation Loop
# T1 construct: JAK2 domain2
# Method: (§1) Samples were analyzed by KiNativ in situ kinase profiling by ActivX Biosciences.
# Erk1 = Erk1 (Homo sapiens, UniProt P27361); details: MOLM-13; 100 nM, 2 hours; Lys2; read-out: Inhibition vs DMSO
# Method: as §1
# JAK1 domain2 = biological target: T2, JAK1 domain2 (Homo sapiens, UniProt P23458); details: 100 nM, 2 hours
# T2 construct: JAK1 domain2
# T2 sequence (P23458 whole entry, the tested form may be a part): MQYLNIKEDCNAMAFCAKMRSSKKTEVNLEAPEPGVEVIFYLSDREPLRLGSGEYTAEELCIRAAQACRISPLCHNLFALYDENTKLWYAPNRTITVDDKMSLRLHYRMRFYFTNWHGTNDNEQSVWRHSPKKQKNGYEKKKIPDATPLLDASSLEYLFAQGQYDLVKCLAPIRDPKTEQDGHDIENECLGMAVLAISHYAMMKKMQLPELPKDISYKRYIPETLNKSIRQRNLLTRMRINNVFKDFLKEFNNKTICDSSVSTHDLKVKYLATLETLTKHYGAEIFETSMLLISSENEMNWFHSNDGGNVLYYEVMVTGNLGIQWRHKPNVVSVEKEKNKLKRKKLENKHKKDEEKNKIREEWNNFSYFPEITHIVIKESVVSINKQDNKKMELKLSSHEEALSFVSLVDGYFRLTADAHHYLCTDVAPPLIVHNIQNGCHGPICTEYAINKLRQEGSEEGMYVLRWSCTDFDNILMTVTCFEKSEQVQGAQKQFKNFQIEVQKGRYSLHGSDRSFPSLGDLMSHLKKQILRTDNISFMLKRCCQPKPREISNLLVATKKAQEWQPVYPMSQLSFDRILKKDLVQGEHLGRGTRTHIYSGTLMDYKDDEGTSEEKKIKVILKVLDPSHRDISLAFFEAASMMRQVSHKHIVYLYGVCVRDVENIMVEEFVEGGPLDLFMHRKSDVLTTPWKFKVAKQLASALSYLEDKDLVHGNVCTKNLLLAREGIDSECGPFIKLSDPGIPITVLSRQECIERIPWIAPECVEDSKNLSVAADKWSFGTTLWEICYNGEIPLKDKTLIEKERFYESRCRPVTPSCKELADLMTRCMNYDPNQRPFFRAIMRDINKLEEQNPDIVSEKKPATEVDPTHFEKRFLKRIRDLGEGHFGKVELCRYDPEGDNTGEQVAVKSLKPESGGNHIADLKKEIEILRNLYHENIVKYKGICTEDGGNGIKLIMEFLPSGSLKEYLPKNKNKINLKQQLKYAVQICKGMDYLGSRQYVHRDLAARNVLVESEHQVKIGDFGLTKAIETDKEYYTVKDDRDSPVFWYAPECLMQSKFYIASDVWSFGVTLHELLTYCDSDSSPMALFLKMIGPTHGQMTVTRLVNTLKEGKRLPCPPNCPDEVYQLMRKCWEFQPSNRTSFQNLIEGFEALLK
# Method: as §1
# YANK3 = YANK3 (Homo sapiens, UniProt Q86UX6); details: MOLM-13; 100 nM, 2 hours; Lys2; read-out: Inhibition vs DMSO
# Chain of YANK3 (Q86UX6 whole entry): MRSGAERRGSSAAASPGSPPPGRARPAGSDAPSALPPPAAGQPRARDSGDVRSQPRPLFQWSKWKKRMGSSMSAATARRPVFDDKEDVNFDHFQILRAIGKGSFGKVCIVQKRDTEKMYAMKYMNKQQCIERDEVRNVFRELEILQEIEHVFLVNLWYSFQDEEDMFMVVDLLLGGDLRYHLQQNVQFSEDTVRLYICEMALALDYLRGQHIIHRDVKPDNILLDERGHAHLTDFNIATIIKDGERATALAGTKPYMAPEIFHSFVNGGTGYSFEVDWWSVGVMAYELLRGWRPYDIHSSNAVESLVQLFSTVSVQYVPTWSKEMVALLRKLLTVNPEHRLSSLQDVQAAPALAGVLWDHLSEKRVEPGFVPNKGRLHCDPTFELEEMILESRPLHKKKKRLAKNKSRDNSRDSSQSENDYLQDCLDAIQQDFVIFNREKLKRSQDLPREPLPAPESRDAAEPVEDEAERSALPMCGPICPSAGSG
# Method: as §1
# p70S6Kb = p70S6Kb (Homo sapiens, UniProt Q9UBS0); details: MOLM-13, 2 h, 100 nM
# Chain of p70S6Kb (Q9UBS0 whole entry): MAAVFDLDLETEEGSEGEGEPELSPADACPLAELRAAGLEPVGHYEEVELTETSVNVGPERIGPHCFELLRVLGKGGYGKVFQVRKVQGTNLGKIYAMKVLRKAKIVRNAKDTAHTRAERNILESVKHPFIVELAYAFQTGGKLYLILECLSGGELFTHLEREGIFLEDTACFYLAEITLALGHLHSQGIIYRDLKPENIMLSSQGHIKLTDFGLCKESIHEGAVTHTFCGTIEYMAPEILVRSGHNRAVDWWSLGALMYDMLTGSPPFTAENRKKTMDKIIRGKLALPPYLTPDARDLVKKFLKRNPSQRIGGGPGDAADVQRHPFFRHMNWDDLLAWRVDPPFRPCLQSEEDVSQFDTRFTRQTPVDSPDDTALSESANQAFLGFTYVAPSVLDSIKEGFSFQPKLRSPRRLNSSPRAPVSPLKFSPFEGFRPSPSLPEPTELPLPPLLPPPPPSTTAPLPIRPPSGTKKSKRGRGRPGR
# Method: as §1
# PCTAIRE2 = PCTAIRE2 (Homo sapiens, UniProt Q00537); details: MOLM-13; 100 nM, 2 hours; Lys2; read-out: Inhibition vs DMSO
# Method: as §1
# AurA = biological target: T3, AurA (Homo sapiens, UniProt O14965); details: MOLM-13, 2 h, 100 nM
# T3 sequence (O14965 1-403): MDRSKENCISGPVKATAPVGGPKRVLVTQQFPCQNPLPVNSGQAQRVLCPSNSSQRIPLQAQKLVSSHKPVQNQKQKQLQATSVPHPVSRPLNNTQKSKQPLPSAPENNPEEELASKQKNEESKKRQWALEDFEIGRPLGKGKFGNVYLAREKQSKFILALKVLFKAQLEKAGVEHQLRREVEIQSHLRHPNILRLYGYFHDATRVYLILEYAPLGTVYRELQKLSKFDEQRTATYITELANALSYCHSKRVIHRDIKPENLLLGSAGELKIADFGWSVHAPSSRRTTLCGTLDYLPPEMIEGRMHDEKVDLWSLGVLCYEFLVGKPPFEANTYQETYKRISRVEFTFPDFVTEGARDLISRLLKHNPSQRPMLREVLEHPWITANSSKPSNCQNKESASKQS
# Method: as §1
# TBK1 = TBK1 (Homo sapiens, UniProt Q9UHD2); details: MOLM-13; 100 nM, 2 hours; Lys1; read-out: Inhibition vs DMSO
# Method: as §1
# MSK2 domain1 = biological target: T4, MSK2 domain1 (Homo sapiens, UniProt O75676); details: MOLM-13, 2 h, 100 nM
# T4 construct: MSK2 domain1
# T4 sequence (O75676 whole entry, the tested form may be a part): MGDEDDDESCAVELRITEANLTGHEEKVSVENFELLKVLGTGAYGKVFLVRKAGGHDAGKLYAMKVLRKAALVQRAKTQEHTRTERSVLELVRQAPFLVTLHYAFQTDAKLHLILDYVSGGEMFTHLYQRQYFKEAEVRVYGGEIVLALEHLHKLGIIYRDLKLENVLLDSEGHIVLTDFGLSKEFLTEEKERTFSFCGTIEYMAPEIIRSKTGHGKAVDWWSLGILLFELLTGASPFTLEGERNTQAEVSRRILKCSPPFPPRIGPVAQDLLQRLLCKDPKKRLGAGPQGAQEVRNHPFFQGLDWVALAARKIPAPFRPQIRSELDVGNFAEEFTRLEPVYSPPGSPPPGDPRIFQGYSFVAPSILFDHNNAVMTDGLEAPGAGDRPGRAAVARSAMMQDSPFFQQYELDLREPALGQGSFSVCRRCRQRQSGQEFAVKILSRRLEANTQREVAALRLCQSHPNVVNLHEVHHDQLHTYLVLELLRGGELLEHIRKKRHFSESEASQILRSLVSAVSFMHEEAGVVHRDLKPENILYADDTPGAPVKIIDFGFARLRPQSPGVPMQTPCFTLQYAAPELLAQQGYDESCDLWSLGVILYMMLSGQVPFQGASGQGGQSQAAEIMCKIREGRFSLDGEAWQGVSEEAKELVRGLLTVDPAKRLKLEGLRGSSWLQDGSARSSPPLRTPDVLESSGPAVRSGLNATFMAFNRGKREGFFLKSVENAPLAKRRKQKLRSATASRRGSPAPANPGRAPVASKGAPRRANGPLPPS
# Method: as §1
# MAP3K4 = MAP3K4 (Homo sapiens, UniProt Q9Y6R4); details: MOLM-13, 2 h, 100 nM
# Chain of MAP3K4 (Q9Y6R4 whole entry): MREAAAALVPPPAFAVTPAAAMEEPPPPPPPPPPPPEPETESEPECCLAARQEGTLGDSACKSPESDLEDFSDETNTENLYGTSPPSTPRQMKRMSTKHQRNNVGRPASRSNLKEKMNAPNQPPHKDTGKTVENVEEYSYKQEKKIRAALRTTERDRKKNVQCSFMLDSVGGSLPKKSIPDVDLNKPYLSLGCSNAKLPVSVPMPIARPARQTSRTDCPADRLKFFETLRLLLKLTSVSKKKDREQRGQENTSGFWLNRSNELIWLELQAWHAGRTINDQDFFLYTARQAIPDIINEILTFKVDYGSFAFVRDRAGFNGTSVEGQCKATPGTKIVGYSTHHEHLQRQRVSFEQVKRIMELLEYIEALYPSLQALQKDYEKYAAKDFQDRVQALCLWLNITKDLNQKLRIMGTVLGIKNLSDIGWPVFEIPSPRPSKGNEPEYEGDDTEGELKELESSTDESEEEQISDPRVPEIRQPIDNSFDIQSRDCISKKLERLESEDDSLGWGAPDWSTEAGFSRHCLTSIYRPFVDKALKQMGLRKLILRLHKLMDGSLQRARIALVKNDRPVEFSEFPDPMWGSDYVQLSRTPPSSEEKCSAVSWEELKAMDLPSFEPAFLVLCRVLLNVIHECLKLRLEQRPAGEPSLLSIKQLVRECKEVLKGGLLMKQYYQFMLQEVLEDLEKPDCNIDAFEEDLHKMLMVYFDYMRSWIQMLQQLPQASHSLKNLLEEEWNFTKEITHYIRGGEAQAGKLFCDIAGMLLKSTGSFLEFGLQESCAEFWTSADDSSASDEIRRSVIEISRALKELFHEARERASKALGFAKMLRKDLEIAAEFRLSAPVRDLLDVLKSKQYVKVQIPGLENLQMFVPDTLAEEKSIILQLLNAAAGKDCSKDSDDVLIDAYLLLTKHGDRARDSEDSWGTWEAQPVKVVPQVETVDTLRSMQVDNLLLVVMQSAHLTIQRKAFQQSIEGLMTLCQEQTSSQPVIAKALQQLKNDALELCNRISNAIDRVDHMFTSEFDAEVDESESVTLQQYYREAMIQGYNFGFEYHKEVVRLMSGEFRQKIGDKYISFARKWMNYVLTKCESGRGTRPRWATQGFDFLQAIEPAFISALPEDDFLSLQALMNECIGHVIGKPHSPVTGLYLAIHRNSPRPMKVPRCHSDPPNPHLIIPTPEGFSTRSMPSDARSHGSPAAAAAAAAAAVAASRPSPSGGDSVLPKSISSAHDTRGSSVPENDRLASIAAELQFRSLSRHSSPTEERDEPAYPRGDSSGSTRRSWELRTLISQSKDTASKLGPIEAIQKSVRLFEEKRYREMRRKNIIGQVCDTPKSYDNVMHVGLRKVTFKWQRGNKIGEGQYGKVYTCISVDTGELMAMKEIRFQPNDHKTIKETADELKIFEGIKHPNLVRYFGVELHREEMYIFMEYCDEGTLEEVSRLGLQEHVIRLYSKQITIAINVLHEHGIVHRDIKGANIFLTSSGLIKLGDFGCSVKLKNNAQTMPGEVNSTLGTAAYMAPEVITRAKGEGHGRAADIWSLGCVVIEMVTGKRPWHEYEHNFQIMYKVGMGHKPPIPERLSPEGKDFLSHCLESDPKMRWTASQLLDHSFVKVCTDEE
# Method: as §1
# IKKb = biological target: T5, IKKb (Homo sapiens, UniProt O14920); details: MOLM-13, 2 h, 100 nM
# T5 sequence (O14920 1-756): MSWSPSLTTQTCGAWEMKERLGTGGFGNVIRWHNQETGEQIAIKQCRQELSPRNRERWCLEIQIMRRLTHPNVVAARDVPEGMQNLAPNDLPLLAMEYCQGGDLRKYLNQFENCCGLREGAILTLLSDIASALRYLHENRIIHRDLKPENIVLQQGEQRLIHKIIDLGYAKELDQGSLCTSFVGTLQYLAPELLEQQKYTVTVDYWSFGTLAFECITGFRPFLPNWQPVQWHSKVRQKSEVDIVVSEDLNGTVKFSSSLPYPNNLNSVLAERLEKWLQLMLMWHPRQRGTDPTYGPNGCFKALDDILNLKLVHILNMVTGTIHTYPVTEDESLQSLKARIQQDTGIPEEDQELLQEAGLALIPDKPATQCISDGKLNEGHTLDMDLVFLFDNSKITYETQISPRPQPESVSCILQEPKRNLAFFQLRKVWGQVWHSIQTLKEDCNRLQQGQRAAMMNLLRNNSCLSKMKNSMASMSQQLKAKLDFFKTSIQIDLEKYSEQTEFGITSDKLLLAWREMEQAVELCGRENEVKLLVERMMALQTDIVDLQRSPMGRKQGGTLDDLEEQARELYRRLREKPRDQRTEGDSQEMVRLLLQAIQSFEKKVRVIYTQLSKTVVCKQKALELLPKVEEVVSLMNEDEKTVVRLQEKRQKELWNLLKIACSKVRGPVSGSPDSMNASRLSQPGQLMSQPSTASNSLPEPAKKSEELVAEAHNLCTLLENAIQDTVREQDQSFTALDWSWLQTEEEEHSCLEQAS
# Method: as §1
# CCRK = CCRK (Homo sapiens, UniProt Q8IZL9); details: MOLM-13; 100 nM, 2 hours; Lys2; read-out: Inhibition vs DMSO
# Method: as §1
# PAK2 = PAK2 (Homo sapiens, UniProt Q13177); details: MOLM-13, 2 h, 100 nM
# Chain of PAK2 (Q13177 whole entry): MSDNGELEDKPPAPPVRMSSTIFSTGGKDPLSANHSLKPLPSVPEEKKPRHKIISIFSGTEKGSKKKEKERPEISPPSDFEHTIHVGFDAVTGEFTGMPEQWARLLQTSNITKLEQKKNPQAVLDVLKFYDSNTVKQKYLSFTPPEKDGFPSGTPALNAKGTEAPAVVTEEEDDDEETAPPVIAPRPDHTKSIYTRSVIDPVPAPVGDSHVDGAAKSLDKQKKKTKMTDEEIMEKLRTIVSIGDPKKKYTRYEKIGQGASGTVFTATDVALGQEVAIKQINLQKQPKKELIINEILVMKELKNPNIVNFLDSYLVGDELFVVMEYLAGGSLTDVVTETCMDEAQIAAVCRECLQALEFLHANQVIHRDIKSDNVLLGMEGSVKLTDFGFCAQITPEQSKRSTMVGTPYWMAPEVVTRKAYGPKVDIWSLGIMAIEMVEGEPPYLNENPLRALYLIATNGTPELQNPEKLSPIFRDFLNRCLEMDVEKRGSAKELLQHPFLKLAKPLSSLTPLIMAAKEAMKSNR
# Method: as §1
# ZAP70 = biological target: T6, ZAP70 (Homo sapiens, UniProt P43403); details: MOLM-13; 100 nM, 2 hours; Activation Loop; read-out: Inhibition vs DMSO
# T6 sequence (P43403 1-619): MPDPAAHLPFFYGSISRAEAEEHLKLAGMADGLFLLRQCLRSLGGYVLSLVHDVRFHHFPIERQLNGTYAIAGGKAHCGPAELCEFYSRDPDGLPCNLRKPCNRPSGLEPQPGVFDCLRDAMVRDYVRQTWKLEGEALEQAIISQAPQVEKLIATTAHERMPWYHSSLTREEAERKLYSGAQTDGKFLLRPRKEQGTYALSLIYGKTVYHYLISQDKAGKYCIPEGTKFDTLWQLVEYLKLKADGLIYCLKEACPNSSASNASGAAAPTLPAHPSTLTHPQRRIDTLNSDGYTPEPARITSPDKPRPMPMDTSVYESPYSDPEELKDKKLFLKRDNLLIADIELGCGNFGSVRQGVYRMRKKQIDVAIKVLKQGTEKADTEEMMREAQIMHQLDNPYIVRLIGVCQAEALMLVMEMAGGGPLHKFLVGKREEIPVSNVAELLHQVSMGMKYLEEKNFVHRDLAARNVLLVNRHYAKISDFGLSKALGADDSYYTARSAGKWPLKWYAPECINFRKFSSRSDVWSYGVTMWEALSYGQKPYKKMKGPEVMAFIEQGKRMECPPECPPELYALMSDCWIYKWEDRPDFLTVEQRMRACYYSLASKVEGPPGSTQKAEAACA
# Method: as §1
# PIK3CG = PIK3CG (Homo sapiens, UniProt P48736); details: MOLM-13; 100 nM, 2 hours; ATP; read-out: Inhibition vs DMSO
# Method: as §1
# [1] = Lys1, read-out: Inhibition vs DMSO
# [2] = Lys2, read-out: Inhibition vs DMSO
smiles,measurement,setting,value
CN1CCN(Cc2ccc(Nc3ncc(Cl)c(Nc4ccccc4S(=O)(=O)N(C)C)n3)cc2)CC1 [TP-0903],Inhibition vs DMSO,JAK2 domain2,-68.6%
same,inhibition at 0.1 µM,Erk1,-2.8%
same,Inhibition vs DMSO,JAK1 domain2; Activation Loop,-23.7%
same,Inhibition vs DMSO,JAK1 domain2; Lys1,-597.8%
same,inhibition at 0.1 µM,YANK3,-4.7%
same,inhibition at 0.1 µM,p70S6Kb; [1],10.1%
same,inhibition at 0.1 µM,p70S6Kb; [2],-12.6%
same,inhibition at 0.1 µM,PCTAIRE2,20.4%
same,inhibition at 0.1 µM,AurA; [1],58.2%
same,inhibition at 0.1 µM,AurA; [2],59.4%
same,inhibition at 0.1 µM,TBK1,82.3%
same,inhibition at 0.1 µM,MSK2 domain1; [1],13.3%
same,inhibition at 0.1 µM,MSK2 domain1; [2],26.8%
same,inhibition at 0.1 µM,MAP3K4; [1],8.8%
same,inhibition at 0.1 µM,MAP3K4; [2],6.6%
same,inhibition at 0.1 µM,IKKb; [1],-4.8%
same,inhibition at 0.1 µM,IKKb; [2],-10.5%
same,inhibition at 0.1 µM,CCRK,68.3%
same,inhibition at 0.1 µM,PAK2; [1],-46.5%
same,inhibition at 0.1 µM,"PAK2; Other, read-out: Inhibition vs DMSO",-26.6%
same,inhibition at 0.1 µM,ZAP70,26.3%
same,inhibition at 0.1 µM,PIK3CG,-8.5%
